In ChEMBL document CHEMBL1201862, “PubChem BioAssay data set” (2004):
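48-hour exposure; five concentrations; linearly interpolated endpoints. At the GI50, growth is halved.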 Active and inactive are the calls of the source. No stated cut-off is given here; in the data, active = GI50 up to about 1.1 µM and inactive = higher.

Tests used:
Assay in all cases: NCI anticancer screen, dose series, 48 h
[1] = test system: HOP-92
[2] = test system: SK-OV-3
[3] = test system: IGROV-1
[4] = test system: UO-31
[5] = test system: SF-268
[6] = test system: UACC-62
[7] = test system: SN12C
[8] = test system: EKVX
[9] = test system: OVCAR-5
[10] = test system: M14
[11] = test system: SK-MEL-2
[12] = test system: UACC-257
[13] = test system: OVCAR-3
[14] = test system: HT-29
[15] = test system: ACHN
[16] = test system: RPMI-8226

Compound | GI50 [1] | GI50 [2] | GI50 [3] | GI50 [4] | GI50 [5] | GI50 [6] | GI50 [7] | GI50 [8] | GI50 [9] | GI50 [10] | GI50 [11] | GI50 [12] | GI50 [13] | GI50 [14] | GI50 [15] | GI50 [16]
CCOC(=O)Nc1ccc(S(=O)(=O)OC)cc1.CCOC(=O)Nc1ccc(S(=O)(=O)OC)cc1.Nc1ncnc2c1ncn2C1OC(CO)C(O)C1O (stereo not given) | > 100 µM (inactive) | > 100 µM (inactive) | > 100 µM (inactive) | > 100 µM (inactive) | > 100 µM (inactive) | > 100 µM (inactive) | > 100 µM (inactive) | > 100 µM (inactive) | > 100 µM (inactive) | > 100 µM (inactive) | > 100 µM (inactive) | 39.6 µM (inactive) | > 100 µM (inactive) | 26.3 µM (inactive) | > 100 µM (inactive) | 21.6 µM (inactive)
CCOC1=NC(=O)CC(c2ccccc2)S1 (stereo not given) | > 100 µM (inactive) |  | > 100 µM (inactive) | > 100 µM (inactive) | > 100 µM (inactive) | > 100 µM (inactive) | > 100 µM (inactive) | > 100 µM (inactive) | > 100 µM (inactive) | 68.1 µM (inactive) | > 100 µM (inactive) | > 100 µM (inactive) | > 100 µM (inactive) | > 100 µM (inactive) | > 100 µM (inactive) | > 100 µM (inactive)
C[C@@H](NC1CCC[C@@H]1O)c1ccccc1 (stereo not given in full) | > 100 µM (inactive) | > 100 µM (inactive) | > 100 µM (inactive) | > 100 µM (inactive) |  | > 100 µM (inactive) | > 100 µM (inactive) | > 100 µM (inactive) | > 100 µM (inactive) | > 100 µM (inactive) | > 100 µM (inactive) | > 100 µM (inactive) | > 100 µM (inactive) | > 100 µM (inactive) | > 100 µM (inactive) | > 100 µM (inactive)
CCOC(=O)CC1=Nc2ccccc2SC1 | > 100 µM (inactive) |  | > 100 µM (inactive) | > 100 µM (inactive) | 0.031 µM (active) | > 100 µM (inactive) | > 100 µM (inactive) | > 100 µM (inactive) | > 100 µM (inactive) | > 100 µM (inactive) | > 100 µM (inactive) | > 100 µM (inactive) | > 100 µM (inactive) | > 100 µM (inactive) | > 100 µM (inactive) | 
CSc1c([S+](C)[O-])[nH]c2cc(Br)cc(Br)c12 (stereo not given) | 10.9 µM (inactive) | 27.9 µM (inactive) | 37.1 µM (inactive) | 23.4 µM (inactive) |  | 17.9 µM (inactive) | 16.7 µM (inactive) | 14.3 µM (inactive) |  | 25.6 µM (inactive) |  | 33.3 µM (inactive) | 20.6 µM (inactive) | 26.9 µM (inactive) | 24.5 µM (inactive) | 18.8 µM (inactive)
CC(=O)CCC1(c2ccccc2)OC(=O)C(C#N)=C1c1ccccc1 (stereo not given) | 50 µM (inactive) | > 100 µM (inactive) | > 100 µM (inactive) | 29.2 µM (inactive) | 70 µM (inactive) | > 100 µM (inactive) | > 100 µM (inactive) | > 100 µM (inactive) | > 100 µM (inactive) | > 100 µM (inactive) | > 100 µM (inactive) | > 100 µM (inactive) | 86.3 µM (inactive) | > 100 µM (inactive) | > 100 µM (inactive) | 39.8 µM (inactive)
COc1cccc2cc(C)c(C(=O)c3ccccc3)nc12 |  |  | > 100 µM (inactive) | > 100 µM (inactive) | > 100 µM (inactive) | > 100 µM (inactive) | > 100 µM (inactive) | > 100 µM (inactive) | > 100 µM (inactive) | > 100 µM (inactive) | > 100 µM (inactive) | 82.2 µM (inactive) | > 100 µM (inactive) |  | > 100 µM (inactive) | > 100 µM (inactive)
C[C@]12CC/C(=N\O)C=C1CC[C@@H]1C2CC[C@@]2(C)C1CC[C@@H]2OC1CCCCO1 (stereo not given in full) | 17.7 µM (inactive) | 21.9 µM (inactive) | 35.6 µM (inactive) | 21.7 µM (inactive) | 23.3 µM (inactive) | > 10 µM (inactive) | > 10 µM (inactive) | 17.7 µM (inactive) | 15.5 µM (inactive) | 18.3 µM (inactive) | 16.7 µM (inactive) | 20.4 µM (inactive) | 16.9 µM (inactive) | 14.3 µM (inactive) | 16.3 µM (inactive) | 15.7 µM (inactive)
COc1ccc(NC(=O)CC/C(CC(=O)c2ccco2)=N/NC(=O)C(N)=O)cc1 |  | > 100 µM (inactive) | > 100 µM (inactive) | > 100 µM (inactive) | 68.9 µM (inactive) | > 100 µM (inactive) | > 100 µM (inactive) | > 100 µM (inactive) | > 100 µM (inactive) | > 100 µM (inactive) | > 100 µM (inactive) | 54.5 µM (inactive) | 46 µM (inactive) | > 100 µM (inactive) | > 100 µM (inactive) | 33.8 µM (inactive)
COC(=O)/C(C#N)=C1\CCC(Nc2cccc(C(F)(F)F)c2)N1C (stereo not given) |  | 84.3 µM (inactive) | > 100 µM (inactive) | 63.1 µM (inactive) | > 100 µM (inactive) | 61 µM (inactive) | > 100 µM (inactive) | > 100 µM (inactive) | > 100 µM (inactive) | > 100 µM (inactive) | > 100 µM (inactive) | > 100 µM (inactive) | > 100 µM (inactive) | > 100 µM (inactive) | 61.8 µM (inactive) | > 100 µM (inactive)
O=C(NO)C12C3C4C1C1C2C3C41C(=O)NO (stereo not given) |  | > 100 µM (inactive) |  | > 100 µM (inactive) | > 100 µM (inactive) | > 100 µM (inactive) | > 100 µM (inactive) | > 100 µM (inactive) | > 100 µM (inactive) | > 100 µM (inactive) | > 100 µM (inactive) |  | > 100 µM (inactive) | > 100 µM (inactive) | > 100 µM (inactive) | > 100 µM (inactive)
O=C1CC(c2c[nH]c3ccccc23)C(=O)N1 (stereo not given) |  | > 100 µM (inactive) | > 100 µM (inactive) | > 100 µM (inactive) |  | > 100 µM (inactive) |  | > 100 µM (inactive) | > 100 µM (inactive) | > 100 µM (inactive) | > 100 µM (inactive) | > 100 µM (inactive) | > 100 µM (inactive) | > 100 µM (inactive) | > 100 µM (inactive) | > 100 µM (inactive)
COCN1COCN(C)C1=O | > 100 µM (inactive) | > 100 µM (inactive) | > 100 µM (inactive) | > 100 µM (inactive) | > 100 µM (inactive) | > 100 µM (inactive) | > 100 µM (inactive) | > 100 µM (inactive) | > 100 µM (inactive) | > 100 µM (inactive) | > 100 µM (inactive) | > 100 µM (inactive) | > 100 µM (inactive) | > 100 µM (inactive) | > 100 µM (inactive) | > 100 µM (inactive)
